From EPA's ToxRefDB 2

Assays:
dog [1] = settings: Chronic toxicity, beagle, Oral, Capsule, dose end: 52 week, group: systemic
rat [2] = settings: Subchronic oral toxicity in rodents, sprague dawley, Feed, dose end: 3 month, group: systemic
dog [3] = settings: Subchronic oral toxicity in nonrodent, beagle, Capsule, dose end: 90 day, group: systemic
mouse [4] = settings: Carcinogenicity, cd1, Oral, Feed, dose end: 78 week, group: systemic
rat [5] = settings: Multigenerational reproductive toxicity study, sprague dawley, Oral, Feed, dose end: 2 generation
rat [6] = settings: Combined chronic toxicity/carcinogenicity, sprague dawley, Oral, Feed, dose end: 104 week, group: systemic
rat [7] = settings: Prenatal developmental toxicity study, other, Oral, Gavage/Intubation, dose end: 15 GD
rat [8] = settings: Carcinogenicity, fischer, Oral, Feed, dose end: 105 week, group: systemic
mouse [9] = settings: Subchronic oral toxicity in rodents, b6c3f1, Feed, dose end: 14 week, group: systemic
mouse [10] = settings: Carcinogenicity; b6c3f1; Oral; Feed; dose end: 105 week; group: systemic; systemic / in life observation / body weight / body weight + systemic / pathology microscopic / kidney / mineralization + systemic / …
rat [11] = settings: Subchronic oral toxicity in rodents, fischer, Feed, dose end: 13 week, group: systemic
rat [12] = settings: Combined chronic toxicity/carcinogenicity; fischer; Oral; Feed; dose end: 2 year; group: systemic; systemic / pathology microscopic / kidney / dilatation + systemic / pathology microscopic / kidney / hyperplasia + systemic / pathology …
mouse [13] = settings: Subchronic oral toxicity in rodents, b6c3f1, Feed, dose end: 13 week, group: systemic
dog [14] = settings: Chronic toxicity, beagle, Oral, Feed, dose end: 1 year, group: systemic
mouse [15] = settings: Carcinogenicity, b6c3f1, Oral, Feed, dose end: 24 month, group: systemic
[16] = systemic / organ weight / liver / absolute + systemic / organ weight / liver / relative to body weight + systemic / clinical chemistry / …
[17] = systemic / clinical chemistry / cholesterol / cholesterol + systemic / clinical chemistry / lipids / phospholipids + systemic / hematology…
[18] = systemic / hematology / platelet / platelet + systemic / clinical chemistry / triglycerides / triglycerides + systemic / clinical chemistry…
[19] = systemic / clinical chemistry / alkaline phosphatase (alp/alk) / alkaline phosphatase (alp/alk) + systemic / clinical chemistry / calcium / …
[20] = systemic / clinical chemistry / alkaline phosphatase (alp/alk) / alkaline phosphatase (alp/alk) + systemic / organ weight / liver / absolute…
[21] = group: offspring, systemic / in life observation / body weight / offspring (pup) weight
[22] = group: parental, systemic / in life observation / body weight / body weight + systemic / in life observation / food consumption / food consumption + systemic…
[23] = systemic / in life observation / body weight / body weight gain + systemic / pathology microscopic / liver / hypertrophy + systemic / …
[24] = group: developmental, developmental / developmental malformation / bone / full supernumerary
[25] = group: maternal, systemic / in life observation / body weight / body weight gain
[26] = systemic / pathology microscopic / kidney / hyperplasia + systemic / pathology microscopic / liver / hyperplasia + systemic / pathology …
[27] = systemic / organ weight / liver / absolute + systemic / organ weight / liver / relative to body weight + systemic / pathology microscopic / …
[28] = systemic / clinical chemistry / alanine aminotransferase (alt/sgpt) / alanine aminotransferase (alt/sgpt) + systemic / clinical chemistry / …
[29] = systemic / organ weight / brain / relative to body weight + systemic / organ weight / kidney / absolute
[30] = systemic / organ weight / brain / relative to body weight + systemic / organ weight / kidney / absolute + systemic / organ weight / kidney…
[31] = systemic / clinical chemistry / alkaline phosphatase (alp/alk) / alkaline phosphatase (alp/alk) + systemic / pathology microscopic / kidney…
[32] = systemic / organ weight / heart / relative to body weight + systemic / organ weight / kidney / absolute + systemic / organ weight / kidney…

With `CC(C)(C)[C@H](O)/C(=C\c1ccc(Cl)cc1)n1cncn1` [Uniconazole-P] the NEL (dog [1]; systemic / clinical chemistry / alkaline phosphatase (alp/alk) / alkaline phosphatase (alp/alk) + systemic / organ weight / thymus / …) was 2 mg/kg/day, the LOAEL (dog [1]; systemic / organ weight / liver / absolute + systemic / organ weight / liver / relative to body weight) was 20 mg/kg/day and the LEL (dog [1]; [16]) was 20 mg/kg/day. It also gave an NOAEL (dog [1]; [16]) of 2 mg/kg/day, an LOAEL (rat [2]; [17]) of 100 mg/kg/day and an NOAEL (rat [2]; [17]) of 10 mg/kg/day. The LEL (rat [2]; [18]) was 3 mg/kg/day, the NEL (rat [2]; [18]) was under 3 mg/kg/day and the NEL (dog [3]; [19]) was 5 mg/kg/day. The NOAEL (dog [3]; [19]) was 5 mg/kg/day, the LEL (dog [3]; [20]) was 20 mg/kg/day and the LOAEL (dog [3]; [20]) was 20 mg/kg/day. It also gave an NEL (mouse [4]; systemic / pathology microscopic / liver / adenoma + systemic / pathology microscopic / liver / adenoma/carcinoma combined + systemic / in …) of 225 mg/kg/day, an LOAEL (mouse [4]; systemic / pathology microscopic / liver / hypertrophy + systemic / pathology microscopic / liver / inflammation + systemic / pathology …) of 225 mg/kg/day and an NOAEL (mouse [4]; systemic / pathology microscopic / liver / hypertrophy + systemic / pathology microscopic / liver / necrosis + systemic / pathology …) of 30 mg/kg/day. The LEL (rat [5]; [21]) was 75 mg/kg/day, the LOAEL (rat [5]; [21]) was 75 mg/kg/day and the NEL (rat [5]; [21]) was 7.5 mg/kg/day. For the same molecule, the NOAEL (rat [5]; [21]) was 7.5 mg/kg/day, the LOAEL (rat [5]; [22]) was 75 mg/kg/day and the NEL (rat [5]; [22]) was 0.75 mg/kg/day. The NOAEL (rat [5]; [22]) was 7.5 mg/kg/day, the LEL (rat [5]; group: parental, systemic / organ weight / liver / nos) was 7.5 mg/kg/day and the LOAEL (rat [6]; [23]) was 39.4 mg/kg/day. For the same molecule, the NOAEL (rat [6]; [23]) was 7.78 mg/kg/day, the LEL (rat [6]; systemic / pathology microscopic / liver / hypertrophy + systemic / pathology microscopic / liver / vacuolization) was 7.78 mg/kg/day and the NEL (rat [6]; systemic / pathology microscopic / liver / hypertrophy + systemic / pathology microscopic / liver / vacuolization + systemic / in life …) was 1.48 mg/kg/day. The LEL (rat [7]; [24]) was 25 mg/kg/day, the LOAEL (rat [7]; [24]) was 25 mg/kg/day and the NEL (rat [7]; [24]) was 5 mg/kg/day. It also gave an NOAEL (rat [7]; [24]) of 5 mg/kg/day, an LEL (rat [7]; [25]) of 25 mg/kg/day and an LOAEL (rat [7]; [25]) of 25 mg/kg/day. It also gave an NEL (rat [7]; [25]) of 5 mg/kg/day and an NOAEL (rat [7]; [25]) of 5 mg/kg/day.

`O=C(c1ccccc1)c1ccccc1` [Benzophenone] was tested, and the LOAEL (rat [8]; systemic / in life observation / body weight / body weight + systemic / pathology microscopic / kidney / hyperplasia + systemic / pathology …) was 30 mg/kg/day, the LEL (rat [8]; [26]) was 15 mg/kg/day and the NEL (rat [8]; [26]) was under 15 mg/kg/day. For the same molecule, the LOAEL (mouse [9]; systemic / clinical chemistry / bile acids / bile acids + systemic / clinical chemistry / sorbitol dehydrogenase / sorbitol dehydrogenase + …) was 404 mg/kg/day, the LEL (mouse [9]; [27]) was 200 mg/kg/day and the NEL (mouse [9]; [27]) was under 200 mg/kg/day. The LEL (mouse [10]) was 35 mg/kg/day, the LOAEL (mouse [10]) was 70 mg/kg/day and the NEL (mouse [10]) was under 35 mg/kg/day.

`Cc1ccn2nc(S(=O)(=O)Nc3c(F)cccc3F)nc2n1` [Flumetsulam] showed an LOAEL (rat [11]; [28]) of 1000 mg/kg/day, an NOAEL (rat [11]; [28]) of 250 mg/kg/day and an NEL (rat [11]; systemic / hematology / erythrocyte (rbc) count differential / erythrocyte (rbc) + systemic / hematology / hemoglobin (hgb) / hemoglobin (…) of 2500 mg/kg/day. For the same molecule, the LEL (rat [12]) was 1000 mg/kg/day, the LOAEL (rat [12]) was 1000 mg/kg/day and the NEL (rat [12]) was 500 mg/kg/day. For the same molecule, the NOAEL (rat [12]) was 500 mg/kg/day, the NEL (mouse [13]; [29]) was 1000 mg/kg/day and the NOAEL (mouse [13]; [29]) was 1000 mg/kg/day. For the same molecule, the LEL (mouse [13]; [30]) was 5000 mg/kg/day, the LOAEL (mouse [13]; [30]) was 5000 mg/kg/day and the LOAEL (dog [14]; [31]) was 500 mg/kg/day. The NEL (dog [14]; [31]) was 20 mg/kg/day, the NOAEL (dog [14]; [31]) was 100 mg/kg/day and the LEL (dog [14]; systemic / organ weight / pituitary gland / relative to body weight) was 100 mg/kg/day. For the same molecule, the NEL (mouse [15]; systemic / organ weight / heart / relative to body weight) was 500 mg/kg/day, the LEL (mouse [15]; [32]) was 1000 mg/kg/day and the LOAEL (mouse [15]; [32]) was over 1000 mg/kg/day. For the same molecule, the NOAEL (mouse [15]; [32]) was at least 1000 mg/kg/day.
